What was measured:
Assay in all cases: biochemical
Set-up in all cases: KINOMEscan competition binding panel (Eurofins DiscoverX), single concentration, percent inhibition
Conditions in all cases: read-out: 15 at 1 µM % inhibition
[1] = molecular target: T1, IKK-beta (Homo sapiens, UniProt O14920)
T1 construct: gene IKBKB
Method in brief: (§1)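 KINOMEscan selectivity screen; >400 human kinases; compound at 1 µM, single concentration.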

[2] = molecular target: PIK3CB (Homo sapiens, UniProt P42338)
Method in brief: as §1

[3] = molecular target: ALK(C1156Y) (Homo sapiens, UniProt Q9UM73, C1156Y)
Method in brief: as §1

[4] = molecular target: MARK4 (Homo sapiens, UniProt Q96L34)
Method in brief: as §1

[5] = molecular target: T2, PKAC-beta (Homo sapiens, UniProt P22694)
T2 construct: gene PRKACB
Method in brief: as §1

[6] = molecular target: ACVR2A (Homo sapiens, UniProt P27037)
Method in brief: as §1

[7] = molecular target: FLT3(K663Q) (Homo sapiens, UniProt P36888, K663Q)
Method in brief: as §1

[8] = molecular target: LYN (Homo sapiens, UniProt P07948)
Method in brief: as §1

[9] = molecular target: VRK2 (Homo sapiens, UniProt Q86Y07)
Method in brief: as §1

[10] = molecular target: DAPK1 (Homo sapiens, UniProt P53355)
Method in brief: as §1

[11] = molecular target: T3, TAK1 (Homo sapiens, UniProt O43318)
T3 construct: gene MAP3K7
Method in brief: as §1

[12] = molecular target: T4, ERK3 (Homo sapiens, UniProt Q16659)
T4 construct: gene MAPK6
Method in brief: as §1

[13] = molecular target: EPHA6 (Homo sapiens, UniProt Q9UF33)
Method in brief: as §1

[14] = molecular target: RET(V804L) (Homo sapiens, UniProt P07949, V804L)
Method in brief: as §1

[15] = molecular target: T5, RPS6KA4(Kin.Dom.2-C-terminal) (Homo sapiens, UniProt O75676)
T5 construct: Kin.Dom.2-C-terminal
Method in brief: as §1

[16] = molecular target: T6, ICK (Homo sapiens, UniProt Q9UPZ9)
T6 construct: gene CILK1
Method in brief: as §1

[17] = molecular target: LIMK2 (Homo sapiens, UniProt P53671)
Method in brief: as §1

[18] = molecular target: RIPK4 (Homo sapiens, UniProt P57078)
Method in brief: as §1

[19] = molecular target: PRKG1 (Homo sapiens, UniProt Q13976)
Method in brief: as §1

[20] = molecular target: STK16 (Homo sapiens, UniProt O75716)
Method in brief: as §1

[21] = molecular target: BMPR1A (Homo sapiens, UniProt P36894)
Method in brief: as §1

[22] = molecular target: T7, BRK (Homo sapiens, UniProt Q13882)
T7 construct: gene PTK6
Method in brief: as §1

[23] = molecular target: SRC (Homo sapiens, UniProt P12931)
Method in brief: as §1

[24] = molecular target: T8, RSK1(Kin.Dom.2-C-terminal) (Homo sapiens, UniProt Q15418)
T8 construct: gene RPS6KA1; Kin.Dom.2-C-terminal
Method in brief: as §1

Sequence of ALK(C1156Y) (Q9UM73 whole entry C1156Y): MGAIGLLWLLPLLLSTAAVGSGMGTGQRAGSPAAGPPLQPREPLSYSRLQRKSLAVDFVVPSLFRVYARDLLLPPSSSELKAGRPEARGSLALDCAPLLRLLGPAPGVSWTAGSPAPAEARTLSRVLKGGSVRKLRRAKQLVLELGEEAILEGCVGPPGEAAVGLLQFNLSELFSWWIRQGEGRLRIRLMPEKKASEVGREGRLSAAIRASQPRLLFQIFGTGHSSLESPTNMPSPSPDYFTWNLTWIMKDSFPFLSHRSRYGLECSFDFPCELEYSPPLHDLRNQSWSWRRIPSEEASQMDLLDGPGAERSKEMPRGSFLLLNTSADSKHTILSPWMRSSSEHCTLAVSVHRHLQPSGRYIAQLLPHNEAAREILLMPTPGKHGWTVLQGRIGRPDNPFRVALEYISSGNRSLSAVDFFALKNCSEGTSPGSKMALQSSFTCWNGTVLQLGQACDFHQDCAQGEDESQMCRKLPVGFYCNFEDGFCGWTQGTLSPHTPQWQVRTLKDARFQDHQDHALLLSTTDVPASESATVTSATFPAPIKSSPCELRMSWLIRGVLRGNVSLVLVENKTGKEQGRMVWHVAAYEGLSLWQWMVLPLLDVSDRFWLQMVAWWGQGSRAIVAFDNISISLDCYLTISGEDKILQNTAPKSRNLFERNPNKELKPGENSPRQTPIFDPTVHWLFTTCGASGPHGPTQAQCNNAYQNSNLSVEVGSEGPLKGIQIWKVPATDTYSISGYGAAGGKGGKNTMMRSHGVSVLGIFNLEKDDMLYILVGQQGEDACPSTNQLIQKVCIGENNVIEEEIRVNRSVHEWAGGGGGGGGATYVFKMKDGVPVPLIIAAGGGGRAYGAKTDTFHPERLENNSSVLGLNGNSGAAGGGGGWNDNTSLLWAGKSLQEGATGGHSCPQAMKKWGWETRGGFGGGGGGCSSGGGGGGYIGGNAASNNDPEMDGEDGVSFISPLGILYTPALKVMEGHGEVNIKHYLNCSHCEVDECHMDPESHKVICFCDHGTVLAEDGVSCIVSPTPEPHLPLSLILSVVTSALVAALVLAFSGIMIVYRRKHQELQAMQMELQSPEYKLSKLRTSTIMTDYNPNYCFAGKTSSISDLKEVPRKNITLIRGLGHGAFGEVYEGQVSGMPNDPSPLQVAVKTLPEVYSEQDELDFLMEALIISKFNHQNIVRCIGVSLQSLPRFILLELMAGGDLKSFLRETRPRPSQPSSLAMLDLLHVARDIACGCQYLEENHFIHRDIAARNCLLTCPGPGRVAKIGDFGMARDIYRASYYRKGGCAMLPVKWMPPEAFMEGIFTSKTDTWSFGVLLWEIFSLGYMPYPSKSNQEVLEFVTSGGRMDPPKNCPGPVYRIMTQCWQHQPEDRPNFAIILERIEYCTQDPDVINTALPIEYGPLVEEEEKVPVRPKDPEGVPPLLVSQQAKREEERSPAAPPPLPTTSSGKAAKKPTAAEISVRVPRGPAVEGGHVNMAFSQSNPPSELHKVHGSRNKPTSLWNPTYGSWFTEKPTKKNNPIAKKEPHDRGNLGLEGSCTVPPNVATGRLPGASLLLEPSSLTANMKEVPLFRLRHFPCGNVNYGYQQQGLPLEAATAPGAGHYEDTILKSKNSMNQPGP
Sequence of RET(V804L) (P07949 whole entry V804L): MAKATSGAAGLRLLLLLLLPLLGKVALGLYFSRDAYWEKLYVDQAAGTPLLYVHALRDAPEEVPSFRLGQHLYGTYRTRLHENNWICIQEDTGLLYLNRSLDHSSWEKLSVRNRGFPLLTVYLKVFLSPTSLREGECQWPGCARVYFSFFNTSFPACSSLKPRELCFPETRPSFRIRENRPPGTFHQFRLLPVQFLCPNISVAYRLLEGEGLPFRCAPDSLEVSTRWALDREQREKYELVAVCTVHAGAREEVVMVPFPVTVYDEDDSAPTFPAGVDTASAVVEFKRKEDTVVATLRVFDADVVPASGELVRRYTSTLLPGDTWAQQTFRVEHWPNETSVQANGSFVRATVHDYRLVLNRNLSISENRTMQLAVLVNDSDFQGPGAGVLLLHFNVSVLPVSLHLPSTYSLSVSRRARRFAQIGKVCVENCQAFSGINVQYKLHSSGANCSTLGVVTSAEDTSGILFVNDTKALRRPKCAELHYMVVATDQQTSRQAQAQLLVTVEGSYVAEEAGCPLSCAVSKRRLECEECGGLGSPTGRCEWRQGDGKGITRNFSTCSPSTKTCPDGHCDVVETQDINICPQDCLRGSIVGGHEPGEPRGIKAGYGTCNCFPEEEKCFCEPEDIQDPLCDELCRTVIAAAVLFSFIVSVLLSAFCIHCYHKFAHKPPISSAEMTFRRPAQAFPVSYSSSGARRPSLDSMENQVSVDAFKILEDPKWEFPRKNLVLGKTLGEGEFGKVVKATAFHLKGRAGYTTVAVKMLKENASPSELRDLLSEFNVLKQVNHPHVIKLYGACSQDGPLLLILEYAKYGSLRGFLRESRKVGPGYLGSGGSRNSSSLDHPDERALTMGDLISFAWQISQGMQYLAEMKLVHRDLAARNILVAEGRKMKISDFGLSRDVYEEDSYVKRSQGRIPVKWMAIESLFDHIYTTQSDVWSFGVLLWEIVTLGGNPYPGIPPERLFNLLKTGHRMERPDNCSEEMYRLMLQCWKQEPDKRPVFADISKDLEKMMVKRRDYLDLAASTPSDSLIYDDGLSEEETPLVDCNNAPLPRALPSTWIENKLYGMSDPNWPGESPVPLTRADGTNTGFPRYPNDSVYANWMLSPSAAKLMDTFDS
Sequence of BMPR1A (P36894 whole entry): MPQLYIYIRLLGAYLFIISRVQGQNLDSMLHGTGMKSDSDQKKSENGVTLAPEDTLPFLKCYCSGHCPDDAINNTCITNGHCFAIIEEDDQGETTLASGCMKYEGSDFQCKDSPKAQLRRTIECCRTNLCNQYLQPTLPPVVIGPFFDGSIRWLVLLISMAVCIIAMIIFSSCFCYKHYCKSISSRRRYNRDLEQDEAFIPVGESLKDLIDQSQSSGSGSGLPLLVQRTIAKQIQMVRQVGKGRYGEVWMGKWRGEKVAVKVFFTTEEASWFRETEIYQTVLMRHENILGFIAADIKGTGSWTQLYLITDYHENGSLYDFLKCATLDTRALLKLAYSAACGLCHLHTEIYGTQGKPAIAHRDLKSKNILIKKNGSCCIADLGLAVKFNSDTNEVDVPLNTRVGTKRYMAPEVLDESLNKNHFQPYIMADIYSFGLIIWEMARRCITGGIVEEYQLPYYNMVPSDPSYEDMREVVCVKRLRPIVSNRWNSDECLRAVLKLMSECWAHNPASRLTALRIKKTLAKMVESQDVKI
Sequence of SRC (P12931 whole entry): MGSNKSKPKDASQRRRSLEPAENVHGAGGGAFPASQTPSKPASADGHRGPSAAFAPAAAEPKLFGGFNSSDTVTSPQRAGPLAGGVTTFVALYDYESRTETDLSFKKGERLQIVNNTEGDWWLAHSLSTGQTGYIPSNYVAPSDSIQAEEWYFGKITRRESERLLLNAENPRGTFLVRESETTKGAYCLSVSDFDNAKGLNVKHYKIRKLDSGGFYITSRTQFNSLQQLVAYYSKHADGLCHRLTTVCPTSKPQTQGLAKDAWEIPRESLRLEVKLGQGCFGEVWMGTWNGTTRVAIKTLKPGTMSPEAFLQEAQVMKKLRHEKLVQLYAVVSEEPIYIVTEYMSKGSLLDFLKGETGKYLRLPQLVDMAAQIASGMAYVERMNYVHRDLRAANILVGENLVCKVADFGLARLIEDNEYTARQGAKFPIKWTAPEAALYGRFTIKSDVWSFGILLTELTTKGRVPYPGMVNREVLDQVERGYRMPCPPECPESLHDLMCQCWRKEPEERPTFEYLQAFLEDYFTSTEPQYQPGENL
T1 sequence (O14920 whole entry): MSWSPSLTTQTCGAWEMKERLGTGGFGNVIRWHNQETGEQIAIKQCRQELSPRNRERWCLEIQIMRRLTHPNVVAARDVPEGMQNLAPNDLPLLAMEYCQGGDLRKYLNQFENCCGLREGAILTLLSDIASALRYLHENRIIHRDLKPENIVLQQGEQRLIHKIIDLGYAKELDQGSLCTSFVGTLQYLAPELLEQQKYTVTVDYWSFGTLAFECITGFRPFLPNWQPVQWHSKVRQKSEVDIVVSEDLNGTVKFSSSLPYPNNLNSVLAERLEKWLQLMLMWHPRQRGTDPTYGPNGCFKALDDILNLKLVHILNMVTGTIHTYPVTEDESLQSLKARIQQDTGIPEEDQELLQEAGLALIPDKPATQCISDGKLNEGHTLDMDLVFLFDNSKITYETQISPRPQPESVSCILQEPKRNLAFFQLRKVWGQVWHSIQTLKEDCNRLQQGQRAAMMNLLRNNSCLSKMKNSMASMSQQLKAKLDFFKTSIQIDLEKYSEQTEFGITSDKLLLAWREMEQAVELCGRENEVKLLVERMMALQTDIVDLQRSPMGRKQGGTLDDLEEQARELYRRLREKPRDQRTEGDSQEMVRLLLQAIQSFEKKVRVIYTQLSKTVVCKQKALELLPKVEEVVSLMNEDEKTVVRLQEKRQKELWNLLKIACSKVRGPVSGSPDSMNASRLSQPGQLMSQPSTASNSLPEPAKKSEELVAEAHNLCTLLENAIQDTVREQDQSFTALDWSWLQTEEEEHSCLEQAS
T7 sequence (Q13882 whole entry): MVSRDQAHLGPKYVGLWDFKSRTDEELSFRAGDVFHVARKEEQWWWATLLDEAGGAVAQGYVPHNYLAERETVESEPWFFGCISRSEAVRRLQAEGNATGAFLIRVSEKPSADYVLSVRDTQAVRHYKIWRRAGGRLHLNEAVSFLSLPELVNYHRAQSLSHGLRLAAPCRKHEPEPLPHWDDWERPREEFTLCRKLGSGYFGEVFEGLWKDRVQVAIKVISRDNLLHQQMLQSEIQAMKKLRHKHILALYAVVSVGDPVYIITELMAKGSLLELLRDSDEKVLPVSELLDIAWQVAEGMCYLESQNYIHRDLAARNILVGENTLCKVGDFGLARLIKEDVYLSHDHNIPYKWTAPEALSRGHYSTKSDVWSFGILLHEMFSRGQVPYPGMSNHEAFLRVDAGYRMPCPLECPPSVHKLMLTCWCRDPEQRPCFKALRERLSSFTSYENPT

inhibition at 1 µM [1]: 37%
inhibition at 1 µM [2]: 25%
inhibition at 1 µM [3]: 4%
inhibition at 1 µM [4]: 0%
inhibition at 1 µM [5]: 0%
inhibition at 1 µM [6]: 0%
inhibition at 1 µM [7]: 10%
inhibition at 1 µM [8]: 0%
inhibition at 1 µM [9]: 12%
inhibition at 1 µM [10]: 7%
inhibition at 1 µM [11]: 24%
inhibition at 1 µM [12]: 18%
inhibition at 1 µM [13]: 0%
inhibition at 1 µM [14]: 0%
inhibition at 1 µM [15]: 16%
inhibition at 1 µM [16]: 12%
inhibition at 1 µM [17]: 9%
inhibition at 1 µM [18]: 8%
inhibition at 1 µM [19]: 0%
inhibition at 1 µM [20]: 2%
inhibition at 1 µM [21]: 0%
inhibition at 1 µM [22]: 0%
inhibition at 1 µM [23]: 0%
inhibition at 1 µM [24]: 5%
SMILES: CNS(=O)(=O)c1ccc(N(C)C)c(Nc2nc(C)nc3cc(OC)c(OC)cc23)c1 [compound 15, 3-((6,7-dimethoxy-2-methylquinazolin-4-yl)amino)-4-(dimethylamino)-N-methylbenzenesulfonamide]
